Experimental data: patent US9220928B2, “Plant extracts from Acronychia species and their use” (EcoBiotics Ltd, priority 2008, dated 2015)

Tested on: Streptococcus salivarius K40
Assay: Antibacterial growth inhibition assay
Format: cell-based
Settings: HPLC fractions and two pure compounds, further test; Table 9
Method: The bacteria used in these studies were: • Streptococcus salivarius […] • Bacillus subtilis All antibacterial assays were carried out in a laminar flow cabinet using the protocol described below. Growth or no-growth was assessed visually and by ELISA reader. […] This was then placed in the bacterial shaker at 37° C. at 210 rpm overnight. • 2) A blank reading was made on the spectrophotometer at 600 nm using […] of Columbia broth. A reading of 200 μL of the starter culture was then taken. • 3) In calculations, a final concentration of 0.005 was desired. The formula used for dilution of x mL starter was: x*A600=0.005*desired volume • 4) 90 uL of MeOH was added to each well of a 96 well flat bottomed plate. 10 μL of sample was added to the top well and diluted 1:10 down the plate. Alternatively the top rows were left empty of MeOH and 100 μL of sample was added and then diluted at 1:10 down the plate. • 5) The plates were then left to dry in a biological safety cabinet for 2-3 hours or until all solvent had evaporated off the plate. • 6) 100 μL of diluted bacterial culture was then added to each well of the plate. The plate was then placed in the bacterial incubator at 37° C. overnight. […] For quantitation, plates were read at 405 nm (ELISA). […]

Compound | Amount of fraction giving 100% inhibition of growth of S. salivarius
CC(C)=CCC/C(C)=C/CC/C(C)=C/COc1ccc(CCC(=O)O)cc1 [EBC111, 3-(4-farnesyloxyphenyl)propionic acid] | 10Ag
COc1cc(CCC(=O)O)ccc1OC/C=C(\C)CC/C=C(\C)CCC=C(C)C [EBC125, 3-(4-farnesyloxy-3-methoxyphenyl)propionic acid] | 1 µL
